ChEMBL document CHEMBL3885881, “DrugMatrix”

Species on record: Rattus norvegicus
Test: DrugMatrix - Regimen: Daily Repeat
Format: toxicity, organism-based, Sprague-Dawley
Parameters: regimen Daily Repeat, gender Male, age 6-8 weeks
Details: in vivo, sc, 0.5 mg/kg, route mini-PUMP - SUBCUTANEOUS, dose level High, vehicle 100 % SALINE; for ABSOLUTE BASOPHIL / ABSOLUTE EOSINOPHIL / ABSOLUTE LYMPHOCYTE / ABSOLUTE MONOCYTE / BASOPHIL / EOSINOPHIL / ERYTHROCYTE COUNT / HEMATOCRIT / HEMOGLOBIN / LEUKOCYTE COUNT / MEAN CORPUSCULAR HEMOGLOBIN / MEAN CORPUSCULAR HEMOGLOBIN CONCENTRATION / MEAN CORPUSCULAR VOLUME / MONOCYTE / NEUTROPHIL / PLATELET COUNT: tissue Blood; for ALBUMIN / ALKALINE PHOSPHATASE / ASPARTATE AMINOTRANSFERASE / BLOOD UREA NITROGEN / CARBON DIOXIDE / CHOLESTEROL / CREATINE PHOSPHOKINASE / CREATININE / GLUCOSE / PHOSPHORUS / POTASSIUM / SODIUM / TOTAL BILIRUBIN / URIC ACID: tissue Plasma

For `CC[C@H](C)[C@H](NC(=O)[C@H](Cc1ccc(O)cc1)NC(=O)[C@@H](NC(=O)[C@H](CCCNC(=N)N)NC(=O)[C@@H](N)CC(=O)O)C(C)C)C(=O)N[C@@H](Cc1cnc[nH]1)C(=O)N1CCC[C@H]1C(=O)N[C@@H](Cc1ccccc1)C(=O)O` [ANGIOTENSIN II], the ABSOLUTE BASOPHIL (72 h, time 3 day) was 56.7 cells/µL, the ABSOLUTE EOSINOPHIL (72 h, time 3 day) was 70 cells/µL and the ABSOLUTE LYMPHOCYTE (72 h, time 3 day) was 10900 cells/µL. The ABSOLUTE MONOCYTE (72 h, time 3 day) was 510 cells/µL, the BASOPHIL (72 h, time 3 day) was 0.4% and the EOSINOPHIL (72 h, time 3 day) was 0.5%. The “ERYTHROCYTE COUNT” value (72 h, time 3 day) was 6.47 x10E6/uL, the HEMATOCRIT (72 h, time 3 day) was 44.43% and the HEMOGLOBIN (72 h, time 3 day) was 13.53 G/DL. The “LEUKOCYTE COUNT” value (72 h, time 3 day) was 14.39 x10E3/uL, the “MEAN CORPUSCULAR HEMOGLOBIN” value (72 h, time 3 day) was 20.97 pg and the “MEAN CORPUSCULAR HEMOGLOBIN CONCENTRATION” value (72 h, time 3 day) was 30.53 G/DL. For the same compound, the “MEAN CORPUSCULAR VOLUME” value (72 h, time 3 day) was 68.7 fL, the MONOCYTE (72 h, time 3 day) was 3.57% and the NEUTROPHIL (72 h, time 3 day) was 18.63%. For the same compound, the “PLATELET COUNT” value (72 h, time 3 day) was 1360 x10E3/uL, the ALBUMIN (72 h, time 3 day) was 3.77 G/DL and the “ALKALINE PHOSPHATASE” value (72 h, time 3 day) was 339 u/L. The “ASPARTATE AMINOTRANSFERASE” value (72 h, time 3 day) was 71.67 u/L, the “BLOOD UREA NITROGEN” value (72 h, time 3 day) was 19 mg/dL and the “CARBON DIOXIDE” value (72 h, time 3 day) was 41.33 mmol/L. For the same compound, the CHOLESTEROL (72 h, time 3 day) was 91.67 mg/dL, the “CREATINE PHOSPHOKINASE” value (72 h, time 3 day) was 392.67 u/L and the CREATININE (72 h, time 3 day) was 0.5 mg/dL. The GLUCOSE (72 h, time 3 day) was 169.67 mg/dL, the PHOSPHORUS (72 h, time 3 day) was 10.23 mg/dL and the POTASSIUM (72 h, time 3 day) was 6.3 MEQ/L. The SODIUM (72 h, time 3 day) was 150.67 MEQ/L, the “TOTAL BILIRUBIN” value (72 h, time 3 day) was 0.27 mg/dL and the “URIC ACID” value (72 h, time 3 day) was 0.93 mg/dL. For the same compound, the ABSOLUTE BASOPHIL (120 h, time 5 day) was 43.3 cells/µL, the ABSOLUTE EOSINOPHIL (120 h, time 5 day) was 36.7 cells/µL and the ABSOLUTE LYMPHOCYTE (120 h, time 5 day) was 9260 cells/µL. For the same compound, the ABSOLUTE MONOCYTE (120 h, time 5 day) was 340 cells/µL, the BASOPHIL (120 h, time 5 day) was 0.33% and the EOSINOPHIL (120 h, time 5 day) was 0.3%. For the same compound, the “ERYTHROCYTE COUNT” value (120 h, time 5 day) was 6.6 x10E6/uL, the HEMATOCRIT (120 h, time 5 day) was 45.03% and the HEMOGLOBIN (120 h, time 5 day) was 13.57 G/DL. The “LEUKOCYTE COUNT” value (120 h, time 5 day) was 12.59 x10E3/uL, the “MEAN CORPUSCULAR HEMOGLOBIN” value (120 h, time 5 day) was 20.53 pg and the “MEAN CORPUSCULAR HEMOGLOBIN CONCENTRATION” value (120 h, time 5 day) was 30.1 G/DL. For the same compound, the “MEAN CORPUSCULAR VOLUME” value (120 h, time 5 day) was 68.23 fL, the MONOCYTE (120 h, time 5 day) was 2.7% and the NEUTROPHIL (120 h, time 5 day) was 22.57%. For the same compound, the “PLATELET COUNT” value (120 h, time 5 day) was 1662.33 x10E3/uL, the ALBUMIN (120 h, time 5 day) was 3.8 G/DL and the “ALKALINE PHOSPHATASE” value (120 h, time 5 day) was 329 u/L. For the same compound, the “ASPARTATE AMINOTRANSFERASE” value (120 h, time 5 day) was 76.33 u/L, the “BLOOD UREA NITROGEN” value (120 h, time 5 day) was 17.67 mg/dL and the “CARBON DIOXIDE” value (120 h, time 5 day) was 41 mmol/L. For the same compound, the CHOLESTEROL (120 h, time 5 day) was 86.33 mg/dL, the “CREATINE PHOSPHOKINASE” value (120 h, time 5 day) was 239.67 u/L and the CREATININE (120 h, time 5 day) was 0.5 mg/dL. The GLUCOSE (120 h, time 5 day) was 171.33 mg/dL, the PHOSPHORUS (120 h, time 5 day) was 9.77 mg/dL and the POTASSIUM (120 h, time 5 day) was 5.87 MEQ/L. The SODIUM (120 h, time 5 day) was 152 MEQ/L, the “TOTAL BILIRUBIN” value (120 h, time 5 day) was 0.3 mg/dL and the “URIC ACID” value (120 h, time 5 day) was 1.33 mg/dL. For the same compound, the ABSOLUTE BASOPHIL ([…], time 14 day) was 40 cells/µL and the ABSOLUTE EOSINOPHIL ([…], time 14 day) was 62 cells/µL.
